# Test results as given in ChEMBL document CHEMBL3124777, “Synthesis and biological evaluation of thiazoline derivatives as new antimicrobial and anticancer agents” (Eur J Med Chem, 2014).
# The source made the active and inactive calls. No cut-off for these calls is given here.
# Legend:
# C6 [1] = test: Inhibition of DNA synthesis in rat C6 cells assessed as BrdU incorporation at IC50 after 24 hrs by ELISA; type: functional, cell-based
# C6 [2] = test: Inhibition of DNA synthesis in rat C6 cells assessed as BrdU incorporation after 24 hrs by ELISA; type: functional, cell-based
# C6 [3] = test: Cytotoxicity against rat C6 cells after 24 hrs by MTT assay; type: functional, cell-based; details: C6, 24 h
# NIH3T3 = test: Cytotoxicity against mouse NIH/3T3 cells after 24 hrs by MTT assay; type: cell-based; details: NIH3T3, 24 h
# C6 [4] = test: Cytotoxicity against rat C6 cells assessed as cell viability at 200 ug/ml after 24 hrs by MTT assay relative to control; type: functional; details: C6, 24 h, read-out: Activity
# C6 [5] = test: Cytotoxicity against rat C6 cells assessed as cell viability at 100 ug/ml after 24 hrs by MTT assay relative to control; type: functional; details: C6, 24 h, read-out: Activity
# C6 [6] = test: Cytotoxicity against rat C6 cells assessed as cell viability at 50 ug/ml after 24 hrs by MTT assay relative to control; type: functional; details: C6, 24 h, read-out: Activity
# C6 [7] = test: Cytotoxicity against rat C6 cells assessed as cell viability at 25 ug/ml after 24 hrs by MTT assay relative to control; type: functional; details: C6, 24 h, read-out: Activity
# C6 [8] = test: Cytotoxicity against rat C6 cells assessed as cell viability at 12 ug/ml after 24 hrs by MTT assay relative to control; type: functional; details: C6, 24 h, read-out: Activity
# C6 [9] = test: Cytotoxicity against rat C6 cells assessed as cell viability at 6 ug/ml after 24 hrs by MTT assay relative to control; type: functional; details: C6, 24 h, read-out: Activity
# Candida albicans = test: Antimicrobial activity against Candida albicans ATCC 22019 after 18 to 24 hrs by microbroth dilution method; type: functional
# Fusarium culmorum = test: Antimicrobial activity against wild type Fusarium culmorum after 48 to 72 hrs by microbroth dilution method; type: functional
# Fusarium verticillioides = test: Antimicrobial activity against Fusarium moniliforme NRRL 1866 after 48 to 72 hrs by microbroth dilution method; type: functional
# Fusarium solani = test: Antimicrobial activity against Fusarium solani NRRL 13414 after 48 to 72 hrs by microbroth dilution method; type: functional
# Aspergillus ochraceus = test: Antimicrobial activity against Aspergillus ochraceus NRRL 3174 after 48 to 72 hrs by microbroth dilution method; type: functional
# Trichoderma harzianum = test: Antimicrobial activity against Trichoderma harzianum NRRL 20565 after 48 to 72 hrs by microbroth dilution method; type: functional
# Penicillium chrysogenum = test: Antimicrobial activity against Penicillium chrysogenum NRRL 1951 after 48 to 72 hrs by microbroth dilution method; type: functional
# Aspergillus parasiticus = test: Antimicrobial activity against Aspergillus parasiticus NRRL 465 after 48 to 72 hrs by microbroth dilution method; type: functional
# Bacillus subtilis = test: Antimicrobial activity against Bacillus subtilis NRS-744 after 18 to 24 hrs by microbroth dilution method; type: functional
# Micrococcus luteus = test: Antimicrobial activity against Micrococcus luteus NRLL B-4375 after 18 to 24 hrs by microbroth dilution method; type: functional
# Pseudomonas aeruginosa = test: Antimicrobial activity against Pseudomonas aeruginosa […] after 18 to 24 hrs by microbroth dilution method; type: functional
# Escherichia coli = test: Antimicrobial activity against Escherichia coli ATCC 25922 after 18 to 24 hrs by microbroth dilution method; type: functional
# Listeria monocytogenes = test: Antimicrobial activity against Listeria monocytogenes ATCC 7644 after 18 to 24 hrs by microbroth dilution method; type: functional
# Staphylococcus aureus = test: Antimicrobial activity against Staphylococcus aureus NRRL B-767 after 18 to 24 hrs by microbroth dilution method; type: functional
SMILES,IC50 (C6 [3]),IC50 (NIH3T3),viability at 200 µg/mL (C6 [4]),viability at 100 µg/mL (C6 [5]),viability at 50 µg/mL (C6 [6]),viability at 25 µg/mL (C6 [7]),viability at 12 µg/mL (C6 [8]),viability at 6 µg/mL (C6 [9]),MIC (Candida albicans),MIC (Fusarium culmorum),MIC (Fusarium verticillioides),MIC (Fusarium solani),MIC (Aspergillus ochraceus),MIC (Trichoderma harzianum),MIC (Penicillium chrysogenum),MIC (Aspergillus parasiticus),MIC (Bacillus subtilis),MIC (Micrococcus luteus),MIC (Pseudomonas aeruginosa),MIC (Escherichia coli),also measured
O=C(CSc1nnnn1-c1ccccc1)N/N=c1/scc(-c2ccccc2)n1-c1ccccc1,8.3 µg/mL,417 µg/mL,22.6%,35.8%,36.7%,42.5%,47.1%,52.1%,250 µg/mL,125 µg/mL,250 µg/mL,250 µg/mL,250 µg/mL,125 µg/mL,250 µg/mL,250 µg/mL,500 µg/mL,250 µg/mL,250 µg/mL,250 µg/mL,inhibition (C6 [1]): Active; inhibition (C6 [2]): Dose-dependent effect; MIC (Listeria monocytogenes): 250 µg/mL; MIC (Staphylococcus aureus): 250 µg/mL
Cc1nnc(SCC(=O)N/N=c2/scc(-c3ccc(Cl)cc3)n2-c2ccccc2)s1,28 µg/mL,253 µg/mL,29%,34.1%,37.9%,53.3%,76.6%,82.8%,250 µg/mL,250 µg/mL,250 µg/mL,250 µg/mL,250 µg/mL,125 µg/mL,250 µg/mL,250 µg/mL,250 µg/mL,250 µg/mL,250 µg/mL,250 µg/mL,inhibition (C6 [1]): Active; inhibition (C6 [2]): Dose-dependent effect; MIC (Listeria monocytogenes): 250 µg/mL; MIC (Staphylococcus aureus): 250 µg/mL
Cc1ccc(-c2cs/c(=N/NC(=O)CSc3nnnn3-c3ccccc3)n2-c2ccccc2)cc1,14.7 µg/mL,> 500 µg/mL,22.2%,28.5%,29.5%,38.8%,55.1%,66.8%,250 µg/mL,125 µg/mL,250 µg/mL,250 µg/mL,250 µg/mL,125 µg/mL,250 µg/mL,250 µg/mL,250 µg/mL,250 µg/mL,250 µg/mL,250 µg/mL,inhibition (C6 [1]): Active; inhibition (C6 [2]): Dose-dependent effect; MIC (Listeria monocytogenes): 250 µg/mL; MIC (Staphylococcus aureus): 250 µg/mL
O=C(CSc1nnnn1-c1ccccc1)N/N=c1/scc(-c2ccc(F)cc2)n1-c1ccccc1,24.3 µg/mL,207 µg/mL,30.6%,35.8%,43.7%,49.3%,60%,74.9%,250 µg/mL,125 µg/mL,250 µg/mL,250 µg/mL,250 µg/mL,125 µg/mL,250 µg/mL,250 µg/mL,500 µg/mL,250 µg/mL,250 µg/mL,250 µg/mL,inhibition (C6 [1]): Active; inhibition (C6 [2]): Dose-dependent effect; MIC (Listeria monocytogenes): 250 µg/mL; MIC (Staphylococcus aureus): 250 µg/mL
Cn1cnnc1SCC(=O)N/N=c1/scc(-c2ccc(C#N)cc2)n1-c1ccccc1,> 200 µg/mL,153 µg/mL,52.6%,55.2%,58.8%,58.8%,62.6%,70.2%,250 µg/mL,250 µg/mL,250 µg/mL,250 µg/mL,250 µg/mL,125 µg/mL,250 µg/mL,250 µg/mL,250 µg/mL,250 µg/mL,250 µg/mL,250 µg/mL,MIC (Listeria monocytogenes): 250 µg/mL; MIC (Staphylococcus aureus): 250 µg/mL
O=C(CSc1ncccn1)N/N=c1/scc(-c2ccc(Cl)cc2)n1-c1ccccc1,83.3 µg/mL,397 µg/mL,39.7%,45.5%,61.8%,91.1%,91.6%,95.9%,250 µg/mL,250 µg/mL,250 µg/mL,250 µg/mL,250 µg/mL,250 µg/mL,250 µg/mL,250 µg/mL,500 µg/mL,250 µg/mL,250 µg/mL,250 µg/mL,MIC (Listeria monocytogenes): 250 µg/mL; MIC (Staphylococcus aureus): 500 µg/mL
N#Cc1ccc(-c2cs/c(=N/NC(=O)CSc3nnnn3-c3ccccc3)n2-c2ccccc2)cc1,> 200 µg/mL,453 µg/mL,54%,59.8%,61.1%,64.2%,74.1%,78.8%,250 µg/mL,250 µg/mL,250 µg/mL,250 µg/mL,250 µg/mL,250 µg/mL,250 µg/mL,250 µg/mL,250 µg/mL,250 µg/mL,250 µg/mL,250 µg/mL,MIC (Listeria monocytogenes): 250 µg/mL; MIC (Staphylococcus aureus): 500 µg/mL
O=C(CSc1ncccn1)N/N=c1/scc(-c2ccc(Br)cc2)n1-c1ccccc1,> 200 µg/mL,273 µg/mL,63.2%,67.6%,69%,72.3%,72.1%,76.4%,250 µg/mL,250 µg/mL,250 µg/mL,250 µg/mL,250 µg/mL,250 µg/mL,250 µg/mL,250 µg/mL,250 µg/mL,250 µg/mL,250 µg/mL,250 µg/mL,MIC (Listeria monocytogenes): 250 µg/mL; MIC (Staphylococcus aureus): 500 µg/mL
